In the supplement of paper PMC11208160:

Test: recombinant barcode read abundance after kanamycin selection (control-corrected) (log10(CPM+1)); higher = more efficient recombination; sequences stand for … in AGTGCAGAGAAAATCGGCCAGTTTTCTCTGCCTGCAGTCCGCATGCCGT…AGATTTATGCAGCGGACTGCCTTTCTCCCAAAGTGATAAACCGGACAGTATCATGGACCGGTTTTCCCGGTAATCCGTATTTGCAAGGTTGGTTTCACT; site = the 11-nt target
Method in brief: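 This pooled E. coli screen matched targets with IS621 bridge RNA target-binding loops. Plating was done in duplicate on chloramphenicol/ampicillin LB agar as a control and on chloramphenicol/ampicillin/kanamycin plus 0.1 mM IPTG. Recombination efficiency reflects barcode counts at recombinant junctions as counts per million, averaged and control-corrected. The figures are log10(CPM+1).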
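Also: IS621 recombinase and bridge RNA in Escherichia coli cells.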

“TAGTGCTCTTGGGTTCTAACCTGTTGCCG (site TAGTGCTCTTG)” and “TAGTGCTCTTGGGTTCTAACCTGTTGCTC (site TAGAGCTCTCA)” are within 0.2 log units of each other in “recombinant barcode read abundance (log10)” value: 0.355 for the first, 0.185 for the second.

Compared with “TAGTGCTCTTGGGTTCTAACCTGTTGCTC (site TAGTGCTCTGA)”, “TAGTGGACTTGGGTTCTAACCTGTTGCCA (site TAGTGGACTTG)” is lower in “recombinant barcode read abundance (log10)” value: 1.07 for the first, 0.466 for the second.

“TAGTGGACTTGGGTTCTAACCTGTTGCCA (site TAGTGGCCTTG)” and “TAGTGTGCTTGGGTTCTAACCTGTTGCTT (site TAGTGTGCTAA)” are within 0.2 log units of each other in “recombinant barcode read abundance (log10)” value: 0.151 for the first, 0.31 for the second.

“TAGTGTGCTTGGGTTCTAACCTGTTGCTT (site TAGTGTGCTAC)” and “TAGTTACCTTGGGTTCTAACCTGTTGCCG (site TACTTAGCTCG)” are within 0.2 log units of each other in “recombinant barcode read abundance (log10)” value: 0.117 for the first, 0.00977 for the second.

First: TAGTTACCTTGGGTTCTAACCTGTTGCCG (site TAGTTACCTCG)
Second: TAGTTAGCTTGGGTTCTAACCTGTTGCCC (site TAGTTAGCTAG)
The “recombinant barcode read abundance (log10)” value of the first is higher: 0.612 for the first, 0.0394 for the second.

Going from “TAGTTAGCTTGGGTTCTAACCTGTTGCCC (site TAGTTAGCTCG)” to “TAGTTAGCTTGGGTTCTAACCTGTTGCCC (site TAGTTAGCTGG)”, the “recombinant barcode read abundance (log10)” value rises from 0.0413 to 0.945.

Compared with “TAGTTAGCTTGGGTTCTAACCTGTTGCCC (site TAGTTAGCTTG)”, “TAGTTGACTTGGGTTCTAACCTGTTGCCA (site TAGTTAACTTG)” is higher in “recombinant barcode read abundance (log10)” value: 0.0262 for the first, 0.45 for the second.

Compared with “TAGTTGACTTGGGTTCTAACCTGTTGCCA (site TAGTTCACTTG)”, “TAGTTGACTTGGGTTCTAACCTGTTGCCA (site TAGTTGACTTG)” is higher in “recombinant barcode read abundance (log10)” value: 0.00742 for the first, 0.986 for the second.

Going from “TAGTTGACTTGGGTTCTAACCTGTTGCCA (site TAGTTTACTTG)” to “TATAAGACTTGGGTTCTAACCTGTTGCAC (site TAGAAGACTAT)”, the “recombinant barcode read abundance (log10)” value rises from 0.0255 to 0.587.

Compared with “TATAAGACTTGGGTTCTAACCTGTTGCAC (site TATAAGACTGT)”, “TATAATACTTGGGTTCTAACCTGTTGCGA (site TATAATACTTC)” is lower in “recombinant barcode read abundance (log10)” value: 0.755 for the first, 0.32 for the second.

“TATAATACTTGGGTTCTAACCTGTTGCGA (site TATACTACTTA)” and “TATAATGCTTGGGTTCTAACCTGTTGCGT (site ATCGGACCTCA)” are within 0.2 log units of each other in “recombinant barcode read abundance (log10)” value: 0.0449 for the first, 0.15 for the second.

“TATAATGCTTGGGTTCTAACCTGTTGCGT (site TATAATGCTAC)” and “TATACTACTTGGGTTCTAACCTGTTGCTA (site TATAATACTTC)” are within 0.2 log units of each other in “recombinant barcode read abundance (log10)” value: 0.335 for the first, 0.511 for the second.

“TATACTACTTGGGTTCTAACCTGTTGCTA (site TATACTACTTA)” and “TATAGCTCTTGGGTTCTAACCTGTTGCCT (site AATAGCTCTAG)” are within 0.2 log units of each other in “recombinant barcode read abundance (log10)” value: 0.0716 for the first, 0.0791 for the second.

“TATAGCTCTTGGGTTCTAACCTGTTGCCT (site CATAGCTCTAG)” and “TATAGCTCTTGGGTTCTAACCTGTTGCCT (site GATAGCTCTAG)” are within 0.2 log units of each other in “recombinant barcode read abundance (log10)” value: 0.242 for the first, 0.106 for the second.

Compared with “TATAGCTCTTGGGTTCTAACCTGTTGCCT (site TATAGCTCTAG)”, “TATAGGGCTTGGGTTCTAACCTGTTGCCG (site GATAGGGCTCC)” is lower in “recombinant barcode read abundance (log10)” value: 0.479 for the first, 0 for the second.

Compared with “TATAGGGCTTGGGTTCTAACCTGTTGCCG (site TATAGGGCTCG)”, “TATATATCTTGGGTTCTAACCTGTTGCAT (site AGGTGTCCTTC)” is lower in “recombinant barcode read abundance (log10)” value: 0.402 for the first, 0.112 for the second.

Compared with “TATATATCTTGGGTTCTAACCTGTTGCAT (site TATATATCTAT)”, “TATCAGACTTGGGTTCTAACCTGTTGCAG (site TATCAGACTCT)” is higher in “recombinant barcode read abundance (log10)” value: 0.23 for the first, 1.45 for the second.

“TATCAGACTTGGGTTCTAACCTGTTGCAG (site TCTCAGGCTCT)” and “TATCAGCCTTGGGTTCTAACCTGTTGCTT (site CATCAGCCTAC)” are within 0.2 log units of each other in “recombinant barcode read abundance (log10)” value: 0.121 for the first, 0.0522 for the second.

“TATCAGCCTTGGGTTCTAACCTGTTGCTT (site TATCAGCCTAA)” and “TATCCCTCTTGGGTTCTAACCTGTTGCCT (site ATCAAGCCTCT)” are within 0.2 log units of each other in “recombinant barcode read abundance (log10)” value: 0.0238 for the first, 0.18 for the second.

Compared with “TATCCCTCTTGGGTTCTAACCTGTTGCCT (site TATCCCTCTAG)”, “TATCCGACTTGGGTTCTAACCTGTTGCCA (site TATCCGACTAG)” is lower in “recombinant barcode read abundance (log10)” value: 1.14 for the first, 0.56 for the second.

“TATCCGACTTGGGTTCTAACCTGTTGCCA (site TATCCGACTCG)” and “TATCCGACTTGGGTTCTAACCTGTTGCCA (site TATCCGACTGG)” are within 0.2 log units of each other in “recombinant barcode read abundance (log10)” value: 0.142 for the first, 0.0584 for the second.

With “TATCCGACTTGGGTTCTAACCTGTTGCCA (site TATCCGACTTG)” the “recombinant barcode read abundance (log10)” value was 0.135.
